For one experiment, the system named is PPARγ. Put plainly: PPARγ expression in liver of HFD mice (8 weeks). Format: in vivo. To be noted: animals treated with HFD. The procedure: In the 8 week experiment, C57BL/6J male mice (21-22 g), after fasting, were fed a HFD as a model of hyperlipidemia for 8 weeks. During the 2 month experiments, mice fasted for one night before the experiment was changed from a standard diet (STD) to a HFD and then the mice were randomly divided into 5 groups, including 2 control and 3 treatment groups. Six mice were used in each group. […] Liver from the protection group supplemented with KMUP-1 HCl (1 mg/kg/day) were used to determine the HMG CoA reductase expression.
For the expression of SR-B1, HMGR, PPARγ and ROCK isolated liver tissues were cut into small chips and placed into an extraction buffer (Tris 10 mM, pH 7.0, NaCl 140 mM, PMSF 2 mM, DTT 5 mM, NP-40 0.5%, pepstatin A 0.05 mM and leupeptin 0.2 mM) for hepatic protein extraction, and centrifuged at 20,000 g for 30 minutes. The obtained protein extract was boiled to a ratio of 4:1 with a sample buffer (Tris 100 mM, pH 6.8, glycerol 20%, SDS 4% and bromophenol blue 0.2%). Electrophoresis was performed using 10% SDS-polyacrylamide gel (1 hour, 100 V, 40 mA, 20 μg protein per lane).
Separated proteins, after 3 repeated centrifugations to discard up-layer tissue lipid inpurity, were transferred to PVDF membranes treated with 5% fat-free milk powder to block the nonspecific IgGs (90 minutes, 100 V) and incubated for 1 hour with specific protein antibody. […]

Another experiment relates to mice fed a HFD. Put plainly: HFD-fed mice, 14-week experiment: body weight, liver morphology, H&E, oil globulets. The class given is in vivo. As for the experimental part: In the 14-week experiment, mice were fed a HFD from week 1 to week 14. During the 3 month experiments, KMUP-1 HCl (2.5 mg) was added to 200 ml tap water and) and drink for 14 weeks or for the last 6 weeks on mice or obese mice fed HFD, separately. 5 mice had free access to drinking water from week 1 to week 14 (protective group) or from week 8 to week 14 (treatment group). Tap water was used to normalize mineral nutrition (Scheme A).
The diameter of the white bar in the photograph was standardized at 100 μM for measuring the specific diameter of oil globulets in a whole liver slice, observed by microscope, with the aid of Powerpoint PC computer software (Microsoft®, USA) and printed out by a Hewlett-Packard® printer (USA). An increase in oil globulet diameter and cell number indicated increasing liver steatosis, i.e. steaotohepatitis. In contrast, decrease in diameter and the number of fat cells indicated the inhibition of steaotohepatitis. […] Hematoxylin-eosin (H&E) and […] staining of liver were used to assess oil globulet numbers under a microscope.
Mice liver and epididymal fat pads were cut and soaked in formalin, dehydrated through graded alcohols and embedded in paraffin. Specimens of liver tissues and epididymal fat pads fixed with formalin (4%) were embedded in paraffin for one hour at 4° C., cut into […] sections, and subjected to H&E staining before examination by light microscope. In heart tissues, the 4-μm-thick paraffin sections were cut from paraffin-embedded tissue blocks and de-paraffinized by immersion in xylene and rehydrated. The slices were then dyed with H&E. After gently rinsing with water, each slide was dehydrated through graded alcohols and finally soaked in xylene twice.
Hematoxylin-eosin (H&E) and IHC staining of liver were used to assess oil globulet numbers under a microscope. A 100 μM white bar was used to determine oil globule sizes in the liver. Oil globulets in a cell were counted from larger to smaller until size limitations were reached. Increases of oil globulet diameter and number indicated increasing liver steatosis. In contrast, a decrease in oil globulet diameters and numbers could indicate the inhibition of liver steatosis. Oil globulets were measured using a Nikon Eclipse TE200-S microscope, aided by Powerpoint computer software (Microsoft®) and printed by a HP® printer to measure the diameter and number of oil globulets on paper. Counting: of oil globules was performed from larger to smaller ones until the observation reached its limit.

Another experiment relates to TNF-α. The experiment in a line: IHC staining of TNF-α in epididymal fat pads. The class given is in vivo, mice. The following applies: protection, 2.5 mg/kg/day. As for the experimental part:
For IHC of MMP-9/TNFα, HSL/p-HSL/ATGL and eNOS/IL-10, antigen retrieval of de-paraffinated sections was performed in Dako target retrieval solution, pH 9.0, in a vegetable steamer followed by the quenching of endogenous peroxidase activity with 3.0% H2O2 in methanol. Sections were then incubated with specific primary antibodies overnight at 4° C. in a humidified chamber. The antibodies used included rabbit polyclonal anti-eNOS (1:50 dilution) (Abcam, Cambridge, UK) or rabbit monoclonal anti-cleaved caspase-3 (1:50 dilution) (Cell Signaling, USA). The sections were then examined using a DAKO REAL EnVision™ Detection System kit (DAKO, Carpinteria, Calif.) and counterstained with hematoxylin. Images were obtained through a Nikon Eclipse TE200-S microscope.

The test system of another experiment is ROCK II. The experiment in a line: ROCK II expression in HepG2 cells. Format: cell-based. As for the experimental part: (§1) HepG2 cells were treated with various concentrations of drugs for 24 hours. Reactions were terminated by washing twice with cold PBS, and the cells were then harvested, Proteins in the whole-cell lysate were homogenized in an ice-cold lysis buffer and a protease inhibitor (Sigma-Aldrich, St. Louis, Mo., U.S.A.). The homogenate was centrifuged at 90, 000 g for 15 minutes at 4° C., and supernatant was recovered as the total cellular protein. Cytosolic and membrane fractions of HepG2 cells were prepared using a. CNM (Cytosol Nuclear Membrane) compartment protein extraction kit (BioChain Institute Inc., Hayward, Calif., U.S.A.) according to the manufacturer's instructions. All of the fractionated protein solutions were stored at -80° C. until analysis. To measure the expression levels of proteins by drugs, the total cell protein was extracted after incubation with treatments for 24 hours and then Western blotting analysis was performed as described previously.

The subject of experiment [1] is eNOS. The experiment in a line: eNOS expression in HepG2 cells. The class given is cell-based. As for the experimental part: as §1, with “−80°” for “-80°”
A further experiment concerns ApoA-I. The experiment in a line: ApoA-I expression in HepG2 cells. Format: cell-based. The following applies: HepG2, 10^−9-10^−5 M. The procedure:
as §1, with “−80°” for “-80°”

In experiment [2] the test system is eNOS. The experiment in a line: Table 3 eNOS (% of control). The class given is cell-based. To be noted: control group = 100 (%).

For the molecule `Cn1c(=O)c2c(ncn2CCN2CCN(c3ccccc3Cl)CC2)n(C)c1=O` [KMUP-1, 7-[2-[4-(2-chlorophenyl)piperazinyl]ethyl]-1,3-dimethyl xanthine], in the experiment with PPARγ, the PPARγ in liver result is given as “activated”. The “fat globules and Mallory's hyaline bodies (H&E staining of liver)” value in the experiment on mice fed a HFD (oral 2.5 mg/kg, last 6 weeks/14 weeks) is reported as “reduced”. Further, the “oil globulet number and changes of oil globulet diameter in liver” value in the experiment with mice fed a HFD (treatment and protection groups) is given as “sharply reduced”. Moreover, the “IHC staining of TNF-α in epididymal fat pads” value in the experiment with TNF-α is “inhibited”. Also, the “ROCK II protein expression” value in the experiment with ROCK II (HepG2, 10^−9-10^−5 M) is on record as “concentration-dependently reduced”. In the experiment with ROCK II (HepG2, combination with KMUP-1 10 μM), the “Rp-8-pCPT-cGMPS-increased ROCK II expression” value is reported as “inhibited”. In addition, in the experiment on ROCK II (HepG2, in the presence of exogenous GGPP and FPP, 10^−9-10^−5M), the “GGPP- and FPP-increased RhoA/ROCK II expression” value was “attenuated”. The “expression of eNOS” value in the experiment on eNOS [1] is given as “concentration-dependently increased”. The ApoA-I expression entry in the experiment with ApoA-I is reported as “concentration-dependently increased”. Besides, the values for the eNOS with eNOS [2] (0.1 μM), in the experiment with eNOS [2] (1.0 μM) and with eNOS [2] (10 μM) were 121.6 ± 16.5%, 132.7 ± 15.2% and 138.9 ± 15.2%, respectively.
